Measured values as given in the NIST ThermoML archive (doi:10.1021/je9003959).

Assay: refractive index (Na D-line) (dimensionless); xn = mol fraction of the nth substance listed
Details: 101 kPa, Liquid, Standard Abbe refractometry

CCN1CCCC1=O [1-ethyl-2-pyrrolidinone] + O
refractive index
Details | 293 K | 298 K | 303 K | 313 K | 323 K
x1 = 0.022 | 1.35197 | 1.35144 | 1.34954 | 1.3488 | 1.34707
x1 = 0.05 | 1.37085 | 1.37012 | 1.3694 | 1.36692 | 1.36431
x1 = 0.1 | 1.39584 | 1.39478 | 1.39291 | 1.39022 | 1.38757
x1 = 0.2 | 1.42603 | 1.42432 | 1.42304 | 1.41887 | 1.41711
x1 = 0.3 | 1.44127 | 1.43983 | 1.43715 | 1.4331 | 1.42913
x1 = 0.4 | 1.44975 | 1.44776 | 1.44605 | 1.4418 | 1.43762
x1 = 0.5 | 1.4551 | 1.45307 | 1.45147 | 1.44694 | 1.44273
x1 = 0.6 | 1.45859 | 1.45647 | 1.45435 | 1.45035 | 1.44622
x1 = 0.7 | 1.46118 | 1.459 | 1.4568 | 1.4527 | 1.44864
x1 = 0.8 | 1.46326 | 1.46096 | 1.4586 | 1.45496 | 1.45075
x1 = 0.9 | 1.46478 | 1.4623 | 1.46016 | 1.45641 | 1.45217
x1 = 1 | 1.46461 | 1.46192 | 1.45791 | 1.45415 | 1.45147
